Assay results from the supplement of paper PMC10307832.

Legend:
Assay in all cases: relative viability (nuclei count vs DMSO), 5 days (fraction); higher = more cells survive
[1] = compound: COC1=CC(c2cc3ccccc3[nH]2)=N/C1=C\c1[nH]c(C)cc1C [Obatoclax] + COc1cccc2cc(-c3nc([C@H]4CC[C@H](C(=O)O)CC4)n4ncnc(N)c34)[nH]c12 [OSI-027] (partner 0.5 µM)
Method in brief: (§1)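 Relative viability equals treated-well nuclei counts divided by vehicle-well nuclei counts. Counts came from 4× images of lung cancer cell lines grown in 1536-well plates for 5 days after pin-tool dosing on the day after seeding. Dosing used one drug alone or a fixed anchor-drug dose plus five library-drug doses (not always all listed) in √10 steps, and values are medians of duplicate plates.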

[2] = compound: CC1=CC(=NN1)NC2=CC(=NC(=N2)/C=C/C3=CC=CC=C3)N4CCN(CC4)C + COc1cccc2cc(-c3nc([C@H]4CC[C@H](C(=O)O)CC4)n4ncnc(N)c34)[nH]c12 [OSI-027] (partner 0.5 µM)
Method in brief: as §1

[3] = compound: COC1=CC(c2cc3ccccc3[nH]2)=N/C1=C\c1[nH]c(C)cc1C [Obatoclax] + Nc1nc2[nH]cc(CCc3ccc(C(=O)N[C@@H](CCC(=O)O)C(=O)O)cc3)c2c(=O)[nH]1 [Pemetrexed] (partner 0.2 µM)
Method in brief: as §1

[4] = compound: COC1=CC(c2cc3ccccc3[nH]2)=N/C1=C\c1[nH]c(C)cc1C [Obatoclax] + Cc1cc(Nc2cc(N3CCN(C)CC3)nc(Sc3ccc(NC(=O)C4CC4)cc3)n2)n[nH]1 [Tozasertib] (partner 0.1 µM)
Method in brief: as §1

Cell Line	relative viability ([1]; first compound 0.01 µM)	relative viability ([1]; first compound 0.03162 µM)	relative viability ([1]; first compound 0.1 µM)	relative viability ([1]; first compound 0.3162 µM)	relative viability ([1]; first compound 1 µM)	relative viability ([2]; first compound 0.08 µM)	relative viability ([2]; first compound 0.253 µM)	relative viability ([2]; first compound 0.8 µM)	relative viability ([2]; first compound 2.53 µM)	relative viability ([2]; first compound 8 µM)	relative viability ([3]; first compound 0.01 µM)	relative viability ([3]; first compound 0.03162 µM)	relative viability ([3]; first compound 0.1 µM)	relative viability ([3]; first compound 0.3162 µM)	relative viability ([3]; first compound 1 µM)	relative viability ([4]; first compound 0.01 µM)	relative viability ([4]; first compound 0.03162 µM)	relative viability ([4]; first compound 0.1 µM)	relative viability ([4]; first compound 0.3162 µM)	relative viability ([4]; first compound 1 µM)
RERF-LC-KJ	0.578	0.554	0.553	0.475	0.268	0.532	0.656	0.53	0.238	0.179	0.466	0.461	0.448	0.457	0.45	0.444	0.536	0.487	0.493	0.281
NCI-H1755	0.768	0.709	0.667	0.742	0.763	0.724	0.715	0.648	0.363	0.209	0.444	0.612	0.433	0.413	0.452	0.542	0.537	0.574	0.574	0.515
NCI-H2170	0.684	0.73	0.647	0.769	0.754	0.759	0.728	0.683	0.377	0.189	0.257	0.243	0.266	0.276	0.283	0.759	0.758	0.718	0.715	0.753
NCI-H2126	0.766	0.546	0.878	0.651	0.736	0.74	0.747	0.675	0.596	0.37	0.661	0.62	0.703	0.704	0.649	0.908	0.827	0.87	0.832	0.819
EPLC-272H	0.277	0.279	0.333	0.247	0.203	0.305	0.277	0.231	0.202	0.171	0.324	0.387	0.422	0.327	0.263	0.255	0.229	0.343	0.326	0.545
NCI-H1975	0.801	0.665	–	0.511	0.177	0.676	0.746	0.629	0.15	0.0749	0.298	0.297	0.3	0.309	0.208	0.706	0.837	–	0.658	0.131
NCI-H3122	0.931	0.976	1.02	0.859	0.2	0.901	0.763	0.975	0.675	0.186	0.19	0.202	0.2	0.203	0.221	0.389	0.361	0.382	0.373	0.391
COR-L 105	0.741	0.906	0.803	0.518	0.301	0.773	0.834	0.678	0.255	0.178	1.13	1.01	1.15	1.27	0.584	0.381	0.316	0.345	0.284	0.248
BEN	0.28	0.297	–	0.283	0.32	0.294	0.264	0.271	0.244	0.162	0.852	0.534	0.44	0.618	0.762	0.491	0.467	–	0.626	0.506
NCI-H1915	0.613	0.585	0.584	0.604	0.546	0.635	0.496	0.557	0.371	0.271	0.486	0.496	0.482	0.535	0.517	0.401	0.405	0.424	0.382	0.414
NCI-H1650	0.677	0.552	0.644	0.386	0.225	0.645	0.782	0.624	0.154	0.0984	0.397	0.356	0.361	0.377	0.331	0.417	0.358	0.425	0.275	0.266
NCI-H2009	0.582	0.608	0.535	0.229	0.247	0.615	0.672	0.638	0.227	0.111	0.978	1.05	0.974	0.993	0.471	0.771	0.824	0.703	0.291	0.255
COR-L23	0.715	0.853	0.786	0.405	0.177	0.817	0.753	0.67	0.361	0.0841	0.193	0.188	0.197	0.203	0.182	0.233	0.182	0.217	0.111	0.108
NCI-H460	0.697	0.703	0.635	0.0709	0.0443	0.696	0.606	0.578	0.0297	0.0153	0.0642	0.0576	0.0607	0.0693	0.0648	0.419	0.504	0.424	0.443	0.188
NCI-H522	0.7	0.718	0.71	0.734	0.775	0.709	0.629	0.609	0.56	0.421	0.955	1	1.33	1.09	0.872	0.656	0.429	0.605	0.545	0.539
LCLC-103H	0.462	0.462	0.404	0.457	0.541	0.504	0.486	0.463	0.378	0.332	0.461	0.487	0.379	0.519	0.528	0.498	0.472	0.505	0.477	0.553

Cell Line	relative viability ([1]; first compound 0.01 µM)	relative viability ([1]; first compound 0.03162 µM)	relative viability ([1]; first compound 0.1 µM)	relative viability ([1]; first compound 0.3162 µM)	relative viability ([1]; first compound 1 µM)	relative viability ([2]; first compound 0.08 µM)	relative viability ([2]; first compound 0.253 µM)	relative viability ([2]; first compound 0.8 µM)	relative viability ([2]; first compound 2.53 µM)	relative viability ([2]; first compound 8 µM)	relative viability ([3]; first compound 0.01 µM)	relative viability ([3]; first compound 0.03162 µM)	relative viability ([3]; first compound 0.1 µM)	relative viability ([3]; first compound 0.3162 µM)	relative viability ([3]; first compound 1 µM)	relative viability ([4]; first compound 0.01 µM)	relative viability ([4]; first compound 0.03162 µM)	relative viability ([4]; first compound 0.1 µM)	relative viability ([4]; first compound 0.3162 µM)	relative viability ([4]; first compound 1 µM)
HCC-827	0.846	0.733	0.806	0.675	0.778	0.778	0.865	0.716	0.742	0.588	0.241	0.275	0.247	0.17	0.278	0.389	0.418	0.44	0.412	0.411
NCI-H322M	0.531	0.338	–	0.462	0.386	0.504	0.546	0.538	0.364	0.278	0.683	0.609	0.632	0.655	0.625	0.505	0.451	–	0.463	0.344
NCI-H1666	0.881	0.89	0.95	0.443	0.5	0.822	0.921	0.86	0.79	0.432	0.835	0.775	0.823	0.725	0.633	0.634	0.739	0.694	0.367	0.398
NCI-H1437	0.868	0.889	0.835	0.859	0.752	0.84	0.89	0.947	0.737	0.164	0.305	0.344	0.324	0.307	0.319	0.414	0.439	0.437	0.457	0.521
NCI-H1944	0.457	0.383	0.381	0.415	0.448	0.437	0.4	0.394	0.272	0.145	0.649	0.551	0.638	0.608	0.602	0.258	0.254	0.287	0.263	0.24
SK-MES-1	0.607	0.611	0.529	0.456	0.179	0.604	0.617	0.524	0.139	0.103	1.02	0.904	0.874	0.776	0.292	0.859	0.999	0.787	0.344	0.285
NCI-H1355	0.391	0.386	0.462	0.422	0.399	0.378	0.374	0.389	0.213	0.105	1.05	0.994	1.06	1	0.966	0.602	0.588	0.623	0.538	0.466
SK-LU-1	0.366	0.315	0.273	0.205	0.166	0.367	0.299	0.376	0.119	0.0636	0.861	0.984	0.937	0.759	0.415	0.346	0.354	0.342	0.184	0.154
NCI-H2228	0.653	0.507	0.524	0.318	0.152	0.566	0.595	0.557	0.0751	0.0577	0.317	0.308	0.367	0.304	0.274	0.278	0.318	0.29	0.257	0.21
NCI-H2342	0.654	0.615	0.728	0.507	0.618	0.557	0.594	0.662	0.577	0.381	0.836	0.775	0.683	0.641	0.757	0.516	0.594	0.656	0.587	0.633
NCI-H1793	0.293	0.286	0.248	0.275	0.298	0.301	0.204	0.26	0.107	0.0726	0.91	0.924	0.727	0.838	0.878	0.309	0.393	0.406	0.324	0.297
NCI-H2347	0.461	0.408	–	0.467	0.412	0.37	0.431	0.465	0.347	0.197	0.399	0.419	0.37	0.392	0.38	0.504	0.684	–	0.549	0.423
A-427	0.513	0.462	0.49	0.418	0.399	0.531	0.295	0.466	0.192	0.0905	0.95	0.965	0.74	0.909	0.75	0.164	0.24	0.243	0.212	0.191
HCC-366	0.961	0.847	0.827	0.821	0.208	0.833	0.618	0.875	0.0773	0.0341	0.152	0.172	0.114	0.223	0.309	0.1	0.117	0.134	0.0528	0.0652
HCC-78	0.393	0.341	0.586	0.539	0.378	0.325	0.357	0.387	0.343	0.198	0.858	0.898	0.777	0.887	0.897	0.338	0.404	0.664	0.399	0.344
PC-14	0.729	0.834	0.67	0.519	0.0675	0.856	0.825	0.802	0.0598	0.0365	0.129	0.147	0.125	0.149	0.109	0.553	0.562	0.473	0.535	0.348
